Results: US20020049157A1, “Use of proteasome inhibitors for treating cancer, inflammation, autoimmune disease, graft rejection and septic shock” (priority 1998, published 2002)
Like-named read-outs stand apart in the source and are kept apart here. Peptide text beside a SMILES is read from it. * marks the point of attachment. Cbz = O=C(OCc1ccccc1)*; CH2F = FC*

Experiments:
[1] = system: BALB/c mouse spleen cells; assay: Anti-CD3-stimulated T cell proliferation (3H-thymidine); format: cell-based; conditions: anti-CD3 50 ng/ml; pulsed 48 h, harvested 64 h
Method: The cells were pulsed with ^3H-thymidine at 48 h and harvested at 64 h after the culture.

heart allograft = format: in vivo, mouse
Method: BALB/c mice (H-2^d) were used as heart donors and C57BL/6 mice (H-2^b) as recipients. […] Group 2 was given 0.65 mg/kg/day; group 3 was given 1.0 mg/kg/day for 4 days, and the dose was then reduced to 0.5 mg/kg/day for 12 days. The graft survival days, mean survival time (MST) and the p value (unpaired Student's test) compared with the control group was presented.
The applicant then used DPBA in treating allograft rejection in a mouse model. BALB/c (H-2^d) mice were used as donors and C57BL/6 (H-2^b) was used as recipients. Heterotropic heart transplantation was performed as described in our previous publication (Chen et al., 1996, supra). […] With this regimen, the MST is more than 22.8+9.8 days and has a tendency of being better than the first group.
Proteasome inhibitors when added at the late G1 phase can suppress proliferation and even induce apoptosis of the activated T cells. […] This possibility was tested in mouse heart transplantation model. The recipients were given no immunosuppressants for 72 h after the transplantation to allow the rejection response to proceed. […] This new drug will be especially useful in patients who are resistant to commonly used immunosuppressants such as CyA, azathioprine, and glucocorticoids.

islet allograft = assay: Mouse islet allograft in streptozocin-induced diabetes; format: in vivo; conditions: 1 mg/kg/day i.p. for 16 days, then 0.5 mg/kg twice a week until day 60
Method: C57BL/6 mice were treated with 250 mg/kg streptozocin and used as islet graft recipients when their blood glucose reached […] from BALB/c mice were isolated after collagenase digestion followed by Ficoll gradient separation. The islets were cultured overnight, and transplanted into the peritoneal cavity of the diabetic C57BL/6 recipients (500-600 islets/recipient). […] The blood glucose of the mice was measured daily and the means+SDs are shown. […] The mice were sacrificed on day 60, or when their blood glucose reached […].

[2] = system: Streptococcus cell wall-induced polyarthritis; conditions: in vivo, cited from earlier work
proteasome = conditions: for repression of chymotrypsin-like activity in the PBMC: RAPA at 10 nM
Method: Human PBMC were cultured in the absence or presence of 2 μg/ml PHA or 10 nM RAPA for 16 h-70 h as indicated. The cells were then harvested, and the chymotrypsin-like activity of whole cells lysates was assayed in the absence or presence of 20 μM proteasome inhibitor LAC. The data are presented as arbitrary units of fluorescence intensity per 20 μg lysate protein. The experiments were repeated three times and a representative one is shown. Samples are in duplicate and the mean±SD is shown. (A) Total chymotrypsin-like activity in the lysate of PBMC. (B) Lactacystin-inhibitable chymotrypsin-like activity in the lysate of 70 h PBMC. Nine micrograms of 20S proteasome were used as positive controls for the inhibitory effect of LAC at 10 μM and 20 μM. LAC was always added to the lysates during the proteinase assay 15 min before the addition of the substrate. The solid bars represent the activity in the presence of LAC. The net proteasome activities are calculated as the total activity minus the remaining activity after the LAC addition.
PBMC lysates were assayed for their proteinase activity at pH 8.2 which favors the proteasome activity, using a chymotrypsin substrate as a representative parameter.
PBMC were cultured with or without PHA (2 μg/ml) and RAPA (10 nM). After 16 h-70 h, the cells were harvested and sonicated in 300 μl PBS on ice for 40 sec. Twenty micrograms of protein per sample from the cleared lysates were supplemented to 100 μl with 0.1 M Tris buffer (pH 8.2). A proteasome-specific inhibitor lactacystin (Omura et al., 1991, supra; Fentenay et al., 1995, supra) was added at a final concentration of 10 nM in some samples as indicated. The samples were incubated on ice for 15 min, and fluorogenic chymotrypsin substrate sLLVY-MCA was then added at a final concentration of 10 nM. The 20S proteasome, which was prepared as previously described (Friguet et al, 1994, J. Biol. Chem. 269:21639), was used as a positive control in place of cell lysates. The samples were incubated at 37° C. for 15 min and the reaction was terminated by adding 4 μl 2.5 M HCl. The samples were then diluted to 2 ml with 0.1 M Tris pH8.2, and measured for their fluorescent intensity by a PTI fluorometer (Photo Technology International, South Brunswick, N.J.). The excitation wavelength was 380 nm, and the emission wavelength 440 mn.

Jurkat and Namalwa cells = assay: Apoptosis induction in Jurkat and Namalwa cells; format: cell-based
Jurkat cells [3] = assay: DNA fragmentation (DNA laddering) in Jurkat cells; format: cell-based; conditions: LAC 6 μM; caspase inhibitor 0.4 μM to 33.3 μM; 6 h
Method: Tonsillar T cells (A, B, and D) and Jurkat cells (C and E) were treated with LAC (10 μM for T cells and 6 μM for Jurkat cells). LAC was added at the beginning of the culture or 40 h after T cell activation as indicated. The cells were harvested at the time points as shown. They were evaluated for their viability with trypan blue exclusion (A, B, and C), and for their mode of cell death according to DNA fragmentation (D and E).
Jurkat cells were treated with LAC (6 μM) in the absence or presence of different concentrations of zVAD.fms (0.4 μM to 33.3 μM) for 6 h. The cells were harvested and their DNA was analyzed by a DNA fragmentation assay according to DNA laddering.
We next employed DNA laddering to study the mode of cell death caused by LAC, and the result of this experiment also reflected the degree of cell death after different treatments. […] After 24 h of LAC treatment, the ladders became less discrete, and this probably reflected further DNA breakdown.
The assay was performed according to a protocol described by Liu et al (Liu et al., 1997, Cell. 89:175) with some modifications. Briefly, 2-6 million cells were re-suspended in 50 μl PBS followed by 300 μl lysis buffer (100 mM Tris-HCl, pH 8.0, 5 mM EDTA, 0.2 M NaCl. 0.2% w/v SDS, and 0.2 mg/ml proteinase K). After overnight incubation at 37° C., 350 μl of 3M NaCl was added to the mixture and cell debris was removed by centrifugation at 13000 g for 20 min at room temperature. DNA in the supernatant was precipitated with an equal volume of 100% ethanol. The pellet was washed with cold 70% ethanol and then dissolved in 20 μl of TE containing 0.2 mg/ml RNase A. After incubation at 37° C. for 2 h, the DNA was resolved on 2% agarose gel and visualized with ethidium bromide staining.

Jurkat cells [4] = assay: Respiration (O2 consumption) of Jurkat cells, oxygen electrode; format: cell-based; conditions: LAC for 4 h; 100 μM Cytochrome C
Source text: The function of Complex I of digitonin (Dig)-permeated Jurkat cells was blocked by rotenone (Rot), and the respiration was resumed by adding succinate (Suc), which provides electrons to Complex II directly and thus bypasses Complex I. The maximal respiration was achieved by adding CCCP (carbonyl cyanide m-chlorophenylhydrazone), which uncouples the oxidation and phosphorylation. The respiration could be blocked by antimycin A (Ant), which inhibits […]. Curves 1 and 6 represent positive controls of rat kidney mitochondria. Curves 2 and 5 represent normals untreated Jurkat cells. Curves 3 and 4 represent Jurkat cells treated with lactacystin (6 μM) for 2 h and 4 h, respectively.
Complex III in the respiration chain was blocked at Complex III antimycin (Ant), and the electron flow was resumed by addiind ascorbate (Asc) and TMPD (tetramethyl-p-phenyl-enediamine).
The assay system is identical to that described in FIG. 16. Jurkat cells were treated with LAC for 4 h (curve 3). The decoupling reagent used in this experiment to achieve maximal respiration is FCCP (carbonylcyanide-p-trifluoromethoxyphenylhydrazone).
The Jurkat Cells (JC) (30×10^6/ml) or rat kidney proximal tubules mitochondria (RKM) (0.5 mg of protein/ml) were incubated in 1 ml measuring chamber at 37° C. in a respiration buffer containing 200 mM sucrose, 5 mM MgCl2, 5 mM KH2PO4, and 30 mM HEPES-Tris (pH 7.5). During respiration experiments following substrates and inhibitors were used: 0.005% Digitonine (Dig); 10 mM Succinate (Suc); 1 mM Ascorbate (Asc); 0.4 mM tetramethyl-p- phenylenediamine (TMPD); 1 μM CCCP, 1 μM FCCP; 0.1 μM Rotenone (Rot); 50 nM Antimycin A (Anti); 1 mM KCN; 100 μM Cytochrome C (Cyt C). The respiration rate of the Jurkat Cells and mitochondria was measured polarographically with a Clarke oxygen electrode (Yellow Springs Instruments, Yellow Springs, Ohio, U.S.A.) using 1 ml thermojacketed chamber. Oxygen concentration was calibrated with air-saturated buffer using Hypoxanthine—Xanthine Oxidase—Catalase system (“chemical zero”). Oxygen consumption was continuously recorded using a “MacLab/8” (Analog Digital Instruments, U.S.A.) connected to a Macintosh SE computer and the MacLab Chart v.3.3.4 software. Rates of oxygen consumption are expressed as ng-atoms of oxygen/min.

Question: For `CC(C)C[C@H](NC(=O)[C@H](Cc1ccccc1)NC(=O)c1cnccn1)B(O)O` [DPBA, Pyz-Phe-boroLeu], which IC50 [1] is on record?
Answer: The IC50 was about 18 nM.

Question: And the “MST (mean survival time of heart allograft)” value (heart allograft; 0.65 mg/kg/day i.p. for 16 days)?
Answer: Its value is “more than 26.2+13 days”.

Question: And the “MST (mean survival time of heart allograft)” value (heart allograft; 1 mg/kg/day i.p. day 1-4, then 0.5 mg/kg/day i.p. day 5-16)?
Answer: Its value is “more than 22.8+9.8 days”.

Question: And the “MST (ongoing rejection)” value (heart allograft; 1 mg/kg/day i.p. for 4 days starting on day 3)?
Answer: Its value is “more than 13.2+1.78 days”.

Question: What about the “appearance of the mice during or after the drug administration” value (heart allograft; mouse, in vivo, ip) of the same compound?
Answer: Its value is “appear healthy”.

Question: And the “graft survival (ongoing rejection)” value (heart allograft; short-term treatment between day 3 and 6)?
Answer: Its value is “more than 13 days”.

Question: And the “duration of normal function of allogeneic islet graft” value (islet allograft)?
Answer: Its value is “more than 60 days”.

Question: And the “glucose elevation consequent to islet rejection” value (islet allograft)?
Answer: Its value is “inhibits the glucose elevation consequent to islet rejection”.

Question: What about the toxicity ([2]; rat) of the same compound?
Answer: The toxicity was “without apparent toxicity”.

Question: What about the “inhibition of Streptococcus cell wall-induced polyarthritis” value ([2]; rats) of the same compound?
Answer: Its value is “effectively inhibit”.

Question: What does the source list for `CO[C@H]1C[C@@H]2CC[C@@H](C)[C@@](O)(O2)C(=O)C(=O)N2CCCC[C@H]2C(=O)O[C@H]([C@H](C)C[C@@H]2CC[C@@H](O)[C@H](OC)C2)CC(=O)[C@H](C)/C=C(\C)[C@@H](O)[C@@H](OC)C(=O)[C@H](C)C[C@H](C)/C=C/C=C/C=C/1C` [RAPA, Rapamycin]?
Answer: net proteasome activity (proteasome; PHA plus RAPA-treated cells, 70 h, total minus activity remaining after LAC): 113.2×10^3 units/20 μg protein; inhibition of the augmented proteasome activity in the PHA-treated PBMC (proteasome; RAPA 10 nM, 70 h): 44.7%; inhibition of the total proteasome activity in the PHA-treated PBMC (proteasome; RAPA 10 nM, 70 h): 33.6%; repression of chymotrypsin-like activity in the PBMC (proteasome; 40 h after PHA stimulation): 23.1%; repression of chymotrypsin-like activity in the PBMC (proteasome; 70 h after PHA stimulation): 41.1%

Question: With `CN[C@@H]1C[C@H]2O[C@@](C)([C@@H]1OC)n1c3ccccc3c3c4c(c5c6ccccc6n2c5c31)C(=O)NC4` [staurosporine] as the compound, how does the induction of apoptosis (Jurkat and Namalwa cells) read?
Answer: Its induction of apoptosis is “could equally induce apoptosis”.

Question: For `COC(=O)C[C@H](NC(=O)[C@H](C)NC(=O)[C@@H](NC(=O)OCc1ccccc1)C(C)C)C(=O)CF` [zVAD.fms, zVAD.fmk] (Cbz-Val-Ala-Asp(OMe)-CH2F), which “effect on LAC-induced DNA fragmentation” value (Jurkat cells [3]) is on record?
Answer: Its value is “inhibitory effect on DNA fragmentation that is concentration responsive”.

Question: Which “respiration of LAC-treated cells after adding exogenous cytochrome c” value (Jurkat cells [4]) does the source give for cytochrome c here?
Answer: Its value is “the respiration resumed to a rate similar to that of untreated Jurkat cells and mitochondria”.
